The data set in a line: determination of the log P values by HPLC on a reverse phase column (C18), EEC-Directive 79/831 Annex V.A8. Type of data set: physicochemical. As for the experimental part:
Method A Note on the determination of the log P values and mass detection: The stated log P values were determined in accordance with EEC-Directive 79/831 Annex V.A8 by HPLC (High Performance Liquid Chromatography) on a reverse phase column (C18). […] The mass detection was effected with an […] system. Method B Note on the determination of the log P values and mass detection: The stated log P values were determined in accordance with EEC-Directive 79/831 Annex V.A8 by HPLC (High Performance Liquid Chromatography) on a reverse phase column (C18). […] The mass detection was effected with the Micronass ZQ2000 mass detector from Waters. Method C Note on the determination of the log P values and mass detection: The stated log P values were determined in accordance with EEC-Directive 79/831 Annex V.A8 by UPLC (Ultra Performance Liquid Chromatography) on a reverse phase column (C18). […] The mass detection was effected with the LCT Premier or SQD mass detector from Waters.

A word on the chromatographic logP: it is a lipophilicity value derived from retention on a column. Lower therefore signals a more hydrophilic compound.

Where two headings read alike, the source gives them in different places.

In the case of `Fc1ccc(-c2cc3n(n2)CCC3)cc1` [[VI-1], 2-(4-fluorophenyl)-5,6-dihydro-4H-pyrrolo[1,2-b]pyrazole], the chromatographic logP is, setting by setting: (pH 2.3) 2.39; (pH 2.7) 2.39.
`Nc1cc(-c2c(-c3ccc(F)cc3)nn3c2CCC3)ccn1` [[II-1], 4-[2-(4-fluorophenyl)-5,6-dihydro-4H-pyrrolo[1,2-b]pyrazol-3-yl]pyridin-2-amine] gave a chromatographic logP (pH 2.3) of 1.02 and a chromatographic logP (pH 2.7) of 1.02.
On to `CS(=O)(=O)OCCCc1cc(-c2ccc(F)c(Cl)c2)n[nH]1` [[VII-2], 3-[3-(3-chloro-4-fluorophenyl)-1H-pyrazol-5-yl]propyl methanesulfonate], for which the chromatographic logP (pH 2.7) was 2.42.
For `O=C(CCCCO)CC(=O)c1ccc(F)cc1` [[XIII-4], 1-(4-fluorophenyl)-7-hydroxyheptane-1,3-dione], where the note is “pH 2.7”, the chromatographic logP stood at 2.3.
Take `CCC(=S)Nc1cc(-c2c(-c3ccc(F)cc3)nn3c2CCC3)ccn1` [[XI-9], N-{4-[2-(4-fluorophenyl)-5,6-dihydro-4H-pyrrolo[1,2-b]pyrazol-3-yl]pyridin-2-yl}propanethioamide]: the chromatographic logP (pH 2.3) was found to be 2.74.
Turning to `Clc1cc(-c2nn3c(c2I)CCCC3)cs1` [[IV-6], 2-(5-chloro-3-thienyl)-3-iodo-4,5,6,7-tetrahydropyrazolo[1,5-a]pyridine], the chromatographic logP worked out at 4.49 (pH 2.3) and 4.49 (pH 2.5).
For `Fc1ccc(-c2nn3c(c2Br)CCC3)cc1F` [[IV-2], 3-bromo-2-(3,4-difluorophenyl)-5,6-dihydro-4H-pyrrolo[1,2-b]pyrazole], the chromatographic logP was 3.54 (pH 2.3) and 3.54 (pH 2.5).
Regarding `CC(C)C(=O)Nc1cc(-c2c(-c3csc(Cl)c3)nn3c2CCC3)ccn1` [[XI-21], N-{4-[2-(5-chloro-3-thienyl)-5,6-dihydro-4H-pyrrolo[1,2-b]pyrazol-3-yl]pyridin-2-yl}-2-methylpropanamide], where the note is “pH 2.3”, the chromatographic logP came to 2.24.
For `CCC(=O)Nc1cc(-c2c(-c3ccccc3)nn3c2C(C)CC3)ccn1` (centres unmarked) [[XI-2], N-[4-(4-methyl-2-phenyl-5,6-dihydro-4H-pyrrolo[1,2-b]pyrazol-3-yl)pyridin-2-yl]propanamide], the chromatographic logP (pH 2.3) is 1.87.
Take `Nc1cc(-c2c(-c3ccc(F)c(F)c3)nn3c2CCC3)ccn1` [[II-3], 4-[2-(3,4-difluorophenyl)-5,6-dihydro-4H-pyrrolo[1,2-b]pyrazol-3-yl]pyridin-2-amine]: the chromatographic logP amounted to 1.08 (pH 2.3) and 1.08 (pH 2.7).
`CC1OCCc2c(-c3ccnc(NC(=O)C4CC4)c3)c(-c3ccc(F)cc3)nn21` (centres unmarked) [[XI-23], N-{4-[2-(4-fluorophenyl)-7-methyl-4,5-dihydropyrazolo[1,5-c][1,3]oxazin-3-yl]pyridin-2-yl}cyclopropanecarboxamide] gave a chromatographic logP (pH 2.3) of 2.33.
For the compound `CC(=O)Nc1cc(-c2c(-c3ccc(F)cc3)nn3c2CC(C)C3)ccn1` (centres unmarked) [[XI-3], N-{4-[2-(4-fluorophenyl)-5-methyl-5,6-dihydro-4H-pyrrolo[1,2-b]pyrazol-3-yl]pyridin-2-yl}acetamide], the chromatographic logP (pH 2.3) was found to be 1.64.
With `Fc1ccc(-c2cc3n(n2)CCC3)cc1Cl` [[VI-3], 2-(3-chloro-4-fluorophenyl)-5,6-dihydro-4H-pyrrolo[1,2-b]pyrazole], the chromatographic logP reads like this: (pH 2.3) 3.07; (pH 2.7) 3.07.
`CC1(C)OB(c2c(-c3ccc(F)c(F)c3)nn3c2CCC3)OC1(C)C` [[III-2], 2-(3,4-difluorophenyl)-3-(4,4,5,5-tetramethyl-1,3,2-dioxaborolan-2-yl)-5,6-dihydro-4H-pyrrolo[1,2-b]pyrazole]: the chromatographic logP (pH 2.7) was 4.3.
`OCCCc1cc(-c2ccc(F)c(F)c2)n[nH]1` [[XIV-2], 3-[3-(3,4-difluorophenyl)-1H-pyrazol-5-yl]propan-1-ol]: the chromatographic logP reads like this: (pH 2.3) 1.73; (pH 2.7) 1.73.
With “3-iodo-5-methyl-2-phenyl-5,6-dihydro-4H-pyrrolo[1,2-b]pyrazole [[IV-7]]”, the “LogP (pH 2.3)” value (pH 2.3, compounds of the type [IV]) is reported as 3.74. Also, under “pH 2.5, preparation examples in the text”, the “log P (pH 2.5)” value stood at 3.74.
In the case of `OCCCc1cc(-c2ccc(F)cc2)n[nH]1` [[XIV-1], 3-[3-(4-fluorophenyl)-1H-pyrazol-5-yl]propan-1-ol], the chromatographic logP worked out at 1.5 (pH 2.3) and 1.51 (pH 2.7).
`CC1CCn2nc(-c3ccccc3)c(-c3ccnc(NC(=O)CC4CC4)c3)c21` (centres unmarked) [[XI-11], 2-cyclopropyl-N-[4-(4-methyl-2-phenyl-5,6-dihydro-4H-pyrrolo[1,2-b]pyrazol-3-yl)pyridin-2-yl]acetamide] had a chromatographic logP (pH 2.3) of 2.32.
For the compound `O=C(CC1CC1)Nc1cc(-c2c(-c3ccc(F)cc3)nn3c2CCC3)ccn1` [[XI-13], 2-cyclopropyl-N-{4-[2-(4-fluorophenyl)-5,6-dihydro-4H-pyrrolo[1,2-b]pyrazol-3-yl]pyridin-2-yl}acetamide], where the note is “pH 2.3”, the chromatographic logP was 2.08.
In turn, `CCC(=O)N(C(=O)CC)c1cc(-c2c(-c3ccc(F)cc3)nn3c2CCC3C)ccn1` (centres unmarked) [Example 16, N-{4-[2-(4-fluorophenyl)-6-methyl-5,6-dihydro-4H-pyrrolo[1,2-b]pyrazol-3-yl]pyridin-2-yl}-N-propionylpropanamide] had a chromatographic logP of 3.21.
The compound `CCC(=O)N(C(=O)CC)c1cc(-c2c(-c3ccc(F)cc3)nn3c2CCCC3)ccn1` [Example 18, N-{4-[2-(4-fluorophenyl)-4,5,6,7-tetrahydropyrazolo[1,5-a]pyridin-3-yl]pyridin-2-yl}-N-propionylpropanamide] showed a chromatographic logP of 3.18.
Regarding `CCC(=O)Nc1cc(-c2c(-c3csc(Cl)c3)nn3c2CCC3)ccn1` [[XI-12], N-{4-[2-(5-chloro-3-thienyl)-5,6-dihydro-4H-pyrrolo[1,2-b]pyrazol-3-yl]pyridin-2-yl}propanamide], the chromatographic logP (pH 2.3) stood at 1.95.
With `CS(=O)(=O)OCCCc1cc(-c2ccc(F)cc2)n[nH]1` [[VII-1], 3-[3-(4-fluorophenyl)-1H-pyrazol-5-yl]propyl methanesulfonate], the chromatographic logP (pH 2.7) is 2.
For the compound `Fc1ccc(-c2nn3c(c2Br)CCC3)cc1` [[IV-1], 3-bromo-2-(4-fluorophenyl)-5,6-dihydro-4H-pyrrolo[1,2-b]pyrazole], the chromatographic logP (pH 2.3) worked out at 3.21 and the chromatographic logP (pH 7) worked out at 3.21.
Regarding `Nc1cc(-c2c(-c3ccc(F)c(Cl)c3)nn3c2CCC3)ccn1` [[II-2], 4-[2-(3-chloro-4-fluorophenyl)-5,6-dihydro-4H-pyrrolo[1,2-b]pyrazol-3-yl]pyridin-2-amine], the chromatographic logP reads like this: (pH 2.3) 1.28; (pH 2.7) 1.28.
Where the note is “pH 2.3”, `COCC(=O)Nc1cc(-c2c(-c3ccc(F)cc3)nn3c2CC(C)C3)ccn1` (centres unmarked) [[XI-18], N-{4-[2-(4-fluorophenyl)-5-methyl-5,6-dihydro-4H-pyrrolo[1,2-b]pyrazol-3-yl]pyridin-2-yl}-2-methoxyacetamide] showed a chromatographic logP of 2.3.
For the compound `CC1Cc2c(-c3ccnc(NC(=O)CC4CC4)c3)c(-c3ccc(F)cc3)nn2C1` (centres unmarked) [[XI-22], 2-cyclopropyl-N-{4-[2-(4-fluorophenyl)-5-methyl-5,6-dihydro-4H-pyrrolo[1,2-b]pyrazol-3-yl]pyridin-2-yl}acetamide], the chromatographic logP (pH 2.3) was determined as 2.36. The chromatographic logP values of the last two compounds are within 0.2 log units of each other.
As to `CCC1CCc2c(-c3ccnc(NC(C)=O)c3)c(-c3ccc(F)cc3)nn21` (centres unmarked) [[XI-6], N-{4-[6-ethyl-2-(4-fluorophenyl)-5,6-dihydro-4H-pyrrolo[1,2-b]pyrazol-3-yl]pyridin-2-yl}acetamide], the chromatographic logP (pH 2.3) stood at 1.96.
Under “pH 2.3”, `O=C(Nc1cc(-c2c(-c3ccc(F)cc3)nn3c2CCC3)ccn1)C1CCOC1` (centres unmarked) [[XI-24], N-{4-[2-(4-fluorophenyl)-5,6-dihydro-4H-pyrrolo[1,2-b]pyrazol-3-yl]pyridin-2-yl}tetrahydrofuran-3-carboxamide] gave a chromatographic logP of 1.69.
The compound `CC1(C)OB(c2c(-c3ccc(F)c(Cl)c3)nn3c2CCC3)OC1(C)C` [[III-3], 2-(3-chloro-4-fluorophenyl)-3-(4,4,5,5-tetramethyl-1,3,2-dioxaborolan-2-yl)-5,6-dihydro-4H-pyrrolo[1,2-b]pyrazole] had a chromatographic logP (pH 2.7) of 4.73.
Turning to `CCC(=O)Nc1cc(-c2c(-c3ccc(F)cc3)nn3c2C(OC)CC3)ccn1` (centres unmarked) [[XI-19], N-{4-[2-(4-fluorophenyl)-4-methoxy-5,6-dihydro-4H-pyrrolo[1,2-b]pyrazol-3-yl]pyridin-2-yl}propanamide], the chromatographic logP (pH 2.3) was found to be 1.72.
As to `O=C(C1CC1)N(C(=O)C1CC1)c1cc(-c2c(-c3ccc(F)cc3)nn3c2CCCC3)ccn1` [Example 14, N-(cyclopropylcarbonyl)-N-{4-[2-(4-fluorophenyl)-4,5,6,7-tetrahydropyrazolo[1,5-a]pyridin-3-yl]pyridin-2-yl}cyclopropanecarboxamide], the LogPA (Method A (HPLC, C18, acetonitrile/water with formic acid), compounds of the type [I]) is recorded as 3.28. Also, for the setting “pH 2.7”, the chromatographic logP came to 3.28.
